Target: T1, human bile salt export pump (BSEP) efflux transporter (Homo sapiens, UniProt O95342)
T1 construct: purchased SOLVO Biotechnology Charles River Laboratories, Szeged, Hungary; host or cells: HEK293 (inside out membrane vesicles)
Assay: BSEP Vesicular Transport Inhibition Assay (IC50 determination)
Type: biochemical
Conditions: human BSEP (HEK293) vesicles; taurocholate 0.2 μM; 4 mM Mg-ATP; 10 concentrations, 1 replicate
Experimental: The vesicular transport (VT) assays were performed using inside out membrane vesicles derived from HEK293 cells expressing the specified human bile salt export pump (BSEP) efflux transporter. The membrane vesicles were procured from SOLVO Biotechnology Charles River Laboratories, Szeged, Hungary.
The principle of the assay relies on measuring the accumulation of substrate into inside out vesicles containing the efflux transporter. By utilizing inside out vesicles, the ATP-dependent transport of substrate is directed into the vesicular lumen, where low permeability compounds are then essentially trapped.
For the IC50 screen inhibition assay, 10 concentrations of each compound were tested in the presence of ATP (active transport) in 1 replicate.
The solvent control (DMSO) was tested in the presence of ATP (active transport) and in the presence of AMP (background) in 8 replicates.
Vesicular transport inhibition assays were performed using the specific parameters for each transporter inhibition assay described in Table 53.
Table 54 specifies treatment groups and concentration of compounds, that were examined in the vesicular transport inhibition assay. Detailed data of IC50 screen inhibition assay are shown in Table 55 and detailed data of 1 concentration inhibition assay are shown in Table 56.
The vesicular transport inhibition assay was performed with 4 mM Mg-ATP. For the IC50 screen inhibition assay, 10 concentrations of each compound were tested in the presence of ATP in 1 replicate. For the 1 concentration inhibition assay, 1 concentration of each compound was tested in the presence of ATP (active transport) in 2 replicates. The solvent control (DMSO) was tested in the presence of 4 mM Mg-ATP (active transport) and in the presence of 4 mM AMP (background) in 8 replicates.
The BSEP membrane vesicle suspension was mixed with the ice-cold transport buffer, then the taurocholate probe substrate solution was added (Reaction mixture, 50 μL per well). The compounds were added to the reaction mixture at 1.5-times the final assay concentration. […].
Reaction mixtures and the start reagent (Mg-ATP or AMP in transport buffer) were pre-warmed separately for 15 minutes to reach the incubation temperature of 37° C. […]
The reaction was initiated by the addition of the start reagent (25 μL) to the reaction mixture (diluting the reaction mixture to the final concentration). […] After the 5-minute incubation at 37° C., the reaction was stopped by the addition of 250 μL ice-cold washing mix to each well. […]
The samples were then be transferred to a filter plate and washed with 200 μL cold washing mix5-times to remove any free compounds or taurocholate probe substrate. The amount of taurocholate probe substrate inside the filtered vesicles were determined by liquid scintillation counting. […]

T1 sequence (O95342 whole entry): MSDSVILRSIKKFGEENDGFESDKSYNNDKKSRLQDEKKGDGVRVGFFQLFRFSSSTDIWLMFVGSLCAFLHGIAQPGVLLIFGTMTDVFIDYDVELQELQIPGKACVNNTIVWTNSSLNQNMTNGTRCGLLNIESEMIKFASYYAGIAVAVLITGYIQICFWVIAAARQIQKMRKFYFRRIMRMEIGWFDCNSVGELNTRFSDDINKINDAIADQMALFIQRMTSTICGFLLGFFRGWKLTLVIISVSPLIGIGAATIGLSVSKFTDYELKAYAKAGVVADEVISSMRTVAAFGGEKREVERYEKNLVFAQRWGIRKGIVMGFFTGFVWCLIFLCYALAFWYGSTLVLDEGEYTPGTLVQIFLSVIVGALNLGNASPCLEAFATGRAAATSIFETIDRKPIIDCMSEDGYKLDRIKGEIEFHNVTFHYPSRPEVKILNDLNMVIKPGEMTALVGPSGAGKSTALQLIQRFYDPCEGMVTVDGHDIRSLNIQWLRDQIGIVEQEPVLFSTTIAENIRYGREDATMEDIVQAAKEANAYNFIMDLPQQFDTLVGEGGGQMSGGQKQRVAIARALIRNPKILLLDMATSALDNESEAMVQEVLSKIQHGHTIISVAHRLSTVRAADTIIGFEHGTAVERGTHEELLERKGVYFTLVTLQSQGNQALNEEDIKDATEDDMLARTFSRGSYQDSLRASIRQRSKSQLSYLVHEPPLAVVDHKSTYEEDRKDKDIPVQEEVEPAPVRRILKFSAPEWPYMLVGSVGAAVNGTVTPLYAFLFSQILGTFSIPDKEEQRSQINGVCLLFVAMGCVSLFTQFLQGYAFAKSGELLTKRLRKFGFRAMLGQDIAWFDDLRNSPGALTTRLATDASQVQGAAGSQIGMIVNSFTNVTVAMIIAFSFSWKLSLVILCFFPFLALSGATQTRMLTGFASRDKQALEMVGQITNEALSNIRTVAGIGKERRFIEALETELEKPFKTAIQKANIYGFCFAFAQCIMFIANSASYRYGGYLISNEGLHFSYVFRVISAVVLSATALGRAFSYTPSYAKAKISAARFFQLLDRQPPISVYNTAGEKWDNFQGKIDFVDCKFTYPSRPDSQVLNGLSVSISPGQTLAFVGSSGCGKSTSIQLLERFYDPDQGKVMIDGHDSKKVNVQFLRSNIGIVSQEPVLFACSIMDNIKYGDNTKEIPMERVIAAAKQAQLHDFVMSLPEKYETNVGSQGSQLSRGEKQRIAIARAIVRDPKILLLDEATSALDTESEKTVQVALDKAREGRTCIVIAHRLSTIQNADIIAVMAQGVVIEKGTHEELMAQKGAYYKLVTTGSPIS

Question: How did the BSEP Inhibition/IC50 turn out when `CCN(C)S(=O)(=O)Nc1ccc(F)c(Oc2ccc3ncc([C@H]4COC5(CCN(C6CC7(C6)CN(c6cc8c(cc6F)c(N6CCC(=O)NC6=O)nn8C)C7)CC5)C4)nc3c2)c1C#N` [Compound 158, (3S)-3-[7-[2-cyano-3-[[ethyl(methyl)sulfamoyl]amino]-6-fluoro-phenoxy]quinoxalin-2-yl]-8-[2-[3-(2,4-dioxohexahydropyrimidin-1-yl)-5-fluoro-1-methyl-indazol-6-yl]-2-azaspiro[3.3]heptan-6-yl]-1-oxa-8-azaspiro[4.5]decane] was run?
Answer: Its BSEP Inhibition/IC50 is 7.53 µM.

Question: How did the BSEP Inhibition/IC50 turn out when `CCN(C)S(=O)(=O)Nc1ccc(F)c(Oc2ccc3ncn([C@H]4COC5(CCC(N6CCC(c7cc8c(cc7F)c(N7CCC(=O)NC7=O)nn8C)C(F)(F)C6)CC5)C4)c(=O)c3c2)c1C#N` (single isomer, unassigned) [Compound 39] was run?
Answer: The BSEP Inhibition/IC50 was 1.56 µM.

Question: For `CCN(C)S(=O)(=O)Nc1ccc(F)c(Oc2ccc3ncc([C@H]4COC5(CCN(C6CCC(c7cc8c(cc7F)c(N7CCC(=O)NC7=O)nn8C)CC6F)CC5)C4)nc3c2)c1C#N` (single isomer, unassigned) [Compound 160], which BSEP Inhibition/IC50 is on record?
Answer: Its BSEP Inhibition/IC50 is 1.58 µM.

Question: Which BSEP Inhibition/IC50 does the source give for `CCN(C)S(=O)(=O)Nc1ccc(F)c(Oc2ccc3ncc(C4CC5(CCN(C6CC7(C6)CN(c6cc8c(cc6F)c(N6CCC(=O)NC6=O)nn8C)C7)CC5)C4)nc3c2)c1C#N` (centres unmarked) [Compound 177, 7-[2-cyano-3-[[ethyl(methyl)sulfamoyl]amino]-6-fluoro-phenoxy]-2-[7-[2-[3-(2,4-dioxohexahydropyrimidin-1-yl)-5-fluoro-1-methyl-indazol-6-yl]-2-azaspiro[3.3]heptan-6-yl]-7-azaspiro[3.5]nonan-2-yl]quinoxaline] here?
Answer: Its BSEP Inhibition/IC50 is 7.36 µM.

Question: For `CCN(C)S(=O)(=O)Nc1ccc(F)c(Oc2ccc3ncn([C@H]4COC5(CCN(C6CC(c7cc8c(cc7F)c(N7CCC(=O)NC7=O)nn8C)C6)CC5)C4)c(=O)c3c2)c1C#N` (single isomer, unassigned) [Compound 70], which BSEP Inhibition/IC50 is on record?
Answer: Its BSEP Inhibition/IC50 is 2.08 µM.

Question: For `CCN(C)S(=O)(=O)Nc1ccc(F)c(Oc2ccc3ncn([C@H]4COC5(CCN(C6CCC(c7cc8c(cc7F)c(N7CCC(=O)NC7=O)nn8C)CC6F)CC5)C4)c(=O)c3c2)c1C#N` (single isomer, unassigned) [Compound 28], which BSEP Inhibition/IC50 is on record?
Answer: The BSEP Inhibition/IC50 was 1.96 µM.

Question: Which BSEP Inhibition/IC50 does the source give for `CCN(C)S(=O)(=O)Nc1ccc(F)c(Oc2ccc3ncc([C@@H]4COC5(CCN(C6CCC(c7ccc(NC8CCC(=O)NC8=O)cc7F)CC6)CC5)C4)nc3c2)c1C#N` (single isomer, unassigned) [Compound 60] here?
Answer: The BSEP Inhibition/IC50 was 7.88 µM.

Same assay, conditions: human BSEP (HEK293) vesicles; taurocholate 0.2 μM; 4 mM Mg-ATP; 10 concentrations, 1 replicate; in nM

Question: `CCN(C)S(=O)(=O)Nc1ccc(F)c(Oc2ccc3ncc([C@@H]4COC5(CCN(C6CCC(c7cc8c(cc7F)c(N7CCC(=O)NC7=O)nn8C)CC6)CC5)C4)nc3c2)c1C#N` (single isomer, unassigned) [Compound 54] was tested. Which “BSEP Inhibition/IC50” value did it give?
Answer: The value was 11010.

Question: Which “BSEP Inhibition/IC50” value does the source give for `Cn1nc(N2CCC(=O)NC2=O)c2cc(F)c(N3CC4(CC(N5CCC6(CC5)CC(n5cnc7ccc(Oc8c(F)ccc(NS(=O)(=O)N9C[C@H]%10C[C@H]%10C9)c8C#N)cc7c5=O)C6)C4)C3)cc21` (stereo partly drawn) [Compound 277, (1R,5S)-N-[2-cyano-3-[3-[7-[2-[3-(2,4-dioxohexahydropyrimidin-1-yl)-5-fluoro-1-methyl-indazol-6-yl]-2-azaspiro[3.3]heptan-6-yl]-7-azaspiro[3.5]nonan-2-yl]-4-oxo-quinazolin-6-yl]oxy-4-fluoro-phenyl]-3-azabicyclo[3.1.0]hexane-3-sulfonamide] here?
Answer: The value was 11860.

Question: Which “BSEP Inhibition/IC50” value does the source give for `CCN(C)S(=O)(=O)Nc1ccc(F)c(Oc2ccc3ncn(C4CC5(CCN(C6CCC(c7cc8c(cc7F)c(N7CCC(=O)NC7=O)nn8C)CC6F)CC5)C4)c(=O)c3c2)c1C#N` (single isomer, unassigned) [Compound 83, 6-[2-cyano-3-[[ethyl(methyl)sulfamoyl]amino]-6-fluoro-phenoxy]-3-[7-[4-[3-(2,4-dioxohexahydropyrimidin-1-yl)-5-fluoro-1-methyl-indazol-6-yl]-2-fluoro-cyclohexyl]-7-azaspiro[3.5]nonan-2-yl]-4-oxo-quinazoline] here?
Answer: Its value is 14100.

Question: How did the “BSEP Inhibition/IC50” value turn out when `Cn1nc(N2CCC(=O)NC2=O)c2cc(F)c(N3CC4(CC(N5CCC6(CC5)CC(n5cnc7ccc(Oc8c(F)ccc(NS(=O)(=O)C9CCC9)c8C#N)cc7c5=O)C6)C4)C3)cc21` [Compound 259, N-[2-cyano-3-[3-[7-[2-[3-(2,4-dioxohexahydropyrimidin-1-yl)-5-fluoro-1-methyl-indazol-6-yl]-2-azaspiro[3.3]heptan-6-yl]-7-azaspiro[3.5]nonan-2-yl]-4-oxo-quinazolin-6-yl]oxy-4-fluoro-phenyl]cyclobutanesulfonamide] was run?
Answer: The value was 12760.

Question: How did the “BSEP Inhibition/IC50” value turn out when `CCN(C)S(=O)(=O)Nc1ccc(F)c(Oc2ccc3ncn(C4CC5(CCN(C6CCN(c7cc8c(cc7F)c(N7CCC(=O)NC7=O)nn8C)CC6)CC5)C4)c(=O)c3c2)c1C#N` [Compound 156, 6-[2-cyano-3-[[ethyl(methyl)sulfamoyl]amino]-6-fluoro-phenoxy]-3-[7-[1-[3-(2,4-dioxohexahydropyrimidin-1-yl)-5-fluoro-1-methyl-indazol-6-yl]-4-piperidyl]-7-azaspiro[3.5]nonan-2-yl]-4-oxo-quinazoline] was run?
Answer: Its value is over 40000.

Question: `CCN(C)S(=O)(=O)Nc1ccc(F)c(Oc2ccc3ncn([C@H]4COC5(CCN(C6CC7(C6)CN(c6cc8c(cc6F)c(N6CCC(=O)NC6=O)nn8C)C7)CC5)C4)c(=O)c3c2)c1C#N` [Compound 26, (3R)-3-[6-[2-cyano-3-[[ethyl(methyl)sulfamoyl]amino]-6-fluoro-phenoxy]-4-oxo-quinazolin-3-yl]-8-[2-[3-(2,4-dioxohexahydropyrimidin-1-yl)-5-fluoro-1-methyl-indazol-6-yl]-2-azaspiro[3.3]heptan-6-yl]-1-oxa-8-azaspiro[4.5]decane] was tested. Which “BSEP Inhibition/IC50” value did it give?
Answer: The value was 21770.

Question: With `CCN(C)S(=O)(=O)Nc1ccc(F)c(Oc2ccc3ncc(OCC4CCN(C5CCC(c6cc7c(cc6F)c(N6CCC(=O)NC6=O)nn7C)CC5)CC4)nc3c2)c1C#N` (single isomer, unassigned) [Compound 118, 7-[2-cyano-3-[[ethyl(methyl)sulfamoyl]amino]-6-fluoro-phenoxy]-2-[[1-[4-[3-(2,4-dioxohexahydropyrimidin-1-yl)-5-fluoro-1-methyl-indazol-6-yl]cyclohexyl]-4-piperidyl]methoxy]quinoxaline] as the compound, how does the “BSEP Inhibition/IC50” value read?
Answer: The value was over 40000.

Question: `Cn1nc(N2CCC(=O)NC2=O)c2cc(F)c(N3CC4(CC(N5CCC6(CC5)CC(n5cnc7ccc(Oc8c(F)ccc(NS(=O)(=O)C9CC9)c8C#N)cc7c5=O)C6)C4)C3)cc21` [Compound 260, N-[2-cyano-3-[3-[7-[2-[3-(2,4-dioxohexahydropyrimidin-1-yl)-5-fluoro-1-methyl-indazol-6-yl]-2-azaspiro[3.3]heptan-6-yl]-7-azaspiro[3.5]nonan-2-yl]-4-oxo-quinazolin-6-yl]oxy-4-fluoro-phenyl]cyclopropanesulfonamide] was tested. Which “BSEP Inhibition/IC50” value did it give?
Answer: The value was 12720.

Question: With `CN(CCO)S(=O)(=O)Nc1ccc(F)c(Oc2ccc3ncn(C4CC5(CCN(C6CCC(c7cc8c(cc7F)c(N7CCC(=O)NC7=O)nn8C)CC6F)CC5)C4)c(=O)c3c2)c1C#N` (single isomer, unassigned) [Compound 145, 6-[2-cyano-6-fluoro-3-[[2-hydroxyethyl(methyl)sulfamoyl]amino]phenoxy]-3-[7-[4-[3-(2,4-dioxohexahydropyrimidin-1-yl)-5-fluoro-1-methyl-indazol-6-yl]-2-fluoro-cyclohexyl]-7-azaspiro[3.5]nonan-2-yl]-4-oxo-quinazoline] as the compound, how does the “BSEP Inhibition/IC50” value read?
Answer: Its value is 21630.

Question: How did the “BSEP Inhibition/IC50” value turn out when `CCN(C)S(=O)(=O)Nc1ccc(F)c(Oc2ccc3ncn([C@H]4CCC5(CCN(C6CCC(c7cc8c(cc7F)c(N7CCC(=O)NC7=O)nn8C)CC6)CC5)C4)c(=O)c3c2)c1C#N` (single isomer, unassigned) [Compound 33] was run?
Answer: Its value is 10060.

Reference: patent publication US20260297060A1, “COMPOUNDS FOR THE DEGRADATION OF MUTANT BRAF” (C4 THERAPEUTICS, INC., priority 2023, published 2026)
